Patent publication US20240174744A1, “METHODS OF TREATMENT USING PROTEIN BINDERS TO IRHOM2 EPITOPES” (SCIRHOM GMBH, priority 2021, published 2024)

Each substance was assayed on DSS-induced colitis (IBD) (assay: DSS-induced colitis (IBD) model in humanized NCG mice). Conditions: 25 mg/kg i.p. every two days, 8 mice per group.
Assay type: in vivo, mouse
Experimental: In the following study, an in vivo model was performed to verify the inhibitory effects of the antibodies of the present disclosure on DSS-induced colitis (IBD) in a mouse model for acute IBD. The experiment was carried out with female NOD/Shi-scid/IL-2Rγ null immunodeficient mouse strain (NCG). Mice were humanized using hematopoietic stem cells (CD34+) isolated from human cord blood following TransCure bioServices's proprietary humanization protocol. Only mice with a humanization rate (hCD45/total CD45) above 25% were used.
On day 1, mice were randomized based on the humanization rate and cord blood donors, acute colitis was induced by adding 3% of DSS (Sigma Aldrich, France) in drinking water (MilliQ water provided ad libitum) during […] from D1 to D7 and renewed every 2 days (only for groups #2, #3, #4, #5 and #6). For the recovery period, after the DSS cycle, the DSS solution was removed and replaced by MilliQ water (washout period) during 5 days from day 8 to day 12. […]
Endoscopy score was determined at D5 and D10. […] The endoscope was rectally inserted, and photographs of the endoscopic procedure were recorded. […]
Colon damages were evaluated during the endoscopy using TransCure bioServices's murine endoscopic index of colitis severity (MEICS) that consists of colon thickening, changes of vascular pattern, visible fibrin, granularity of mucosal surface and stool consistency as scoring parameters. […]
All mice were clinically monitored during the whole study for unexpected signs of distress, changes in body weight and evolution of disease severity. These parameters were recorded daily and each mouse was assigned a global IBD score, consisting of body weight, diarrhea & stool consistency and bleeding. The latter two were assessed by visually monitoring stool and mouse hairs around the anus and tail. Moreover, the mortality was also recorded.

Substance | mice that survived the complete study period
Infliximab: Infliximab (Merck Sharp & Dohme, USA), comparator group #3 | two out of 8
Adalimumab | two out of 8
Tocilizumab: Tocilizumab (Roche, Switzerland), comparator group #4 | one out of 8
